Assay results reported in patent US20230157952A1, “METHOD FOR IMPROVING THE STABILITY OF A PHARMACEUTICAL COMPOSITION COMPRISING A HIGH PENETRATION DRUG, AND THE PHARMACEUTICAL COMPOSITION OBTAINED THEREFROM” (Techfields Inc., priority 2020, published 2023).

Legend:
Type in all cases: physicochemical
[1] = Effect of temperature (and pH) on the stability of the solution (purity)
[2] = Effect of pH value on the stability of the solution (purity); conditions: for Purity(%) from day 0-28: 25° C.; for pH at which the solution is stable: 5% solution in 25% ethanol at 25° C.; for Time the solution can be stored at room temperature: 5% solution in 25% ethanol, pH 3-6
[3] = Stability of the pure HPDs (dry solid) at 25° C./RH 60%; conditions: for Purity: pure HPD, 25° C./RH 60%; for Stability of the pure powder: room temperature (25° C./RH 60%)
[4] = day 28, pH 1.0, 7% in 25% ethanol
[5] = day 28, pH 2.0, 7% in 25% ethanol
[6] = day 28, pH 3.0, 7% in 25% ethanol
[7] = day 28, pH 3.7, 7% in 25% ethanol
[8] = day 28, pH 4.6, 7% in 25% ethanol
[9] = day 28, pH 5.0, 7% in 25% ethanol
[10] = day 28, pH 6.0, 7% in 25% ethanol
[11] = day 28, pH 7.0, 7% in 25% ethanol
[12] = day 28, pH 8.0, 7% in 25% ethanol
[13] = 5% solution with 1 equivalent sodium acetate in 25% ethanol, pH 4.49-4.51

Molecule: CCN(CC)CCOC(=O)C(C)c1ccc(CC(C)C)cc1.Cl (racemic) [C-4, 2-(diethylamino)ethyl (R,S)-2-(p-isobutylphenyl)propionate•HCl salt]
- Stability of the solution at a temperature higher than 40° C. and a pH lower than 3 or greater than 6 ([1]; 7% solution in water): not stable
- Purity(%) from day 0-28 [2, 4]: 69.1 ± 0.2%
- Purity(%) from day 0-28 [2, 5]: 80.8 ± 0.4%
- Purity(%) from day 0-28 [2, 6]: 92.5 ± 0.3%
- Purity(%) from day 0-28 [2, 7]: 97.2 ± 0.4%
- Purity(%) from day 0-28 [2, 8]: 97.3 ± 0.3%
- Purity(%) from day 0-28 [2, 9]: 94.3 ± 0.2%
- Purity(%) from day 0-28 [2, 10]: 89.9 ± 0.3%
- Purity(%) from day 0-28 [2, 11]: 52.8 ± 0.4%
- Purity(%) from day 0-28 [2, 12]: 35.3 ± 0.3%
- Purity ([3]; 3 month, listed as C-1-1): 99.9 ± 0.2
- Purity ([3]; 6 month, listed as C-1-1): 99.8 ± 0.2
- Purity ([3]; 9 month, listed as C-1-1): 99.8 ± 0.3
- Purity ([3]; 12 month): 98.1 ± 0.3
- Purity ([3]; 12 month, listed as C-1-1): 99.5 ± 0.3
- Purity ([3]; 18 month): 98.0 ± 0.1
- Purity ([3]; 18 month, listed as C-1-1): 99.8 ± 0.3
- Purity ([3]; 24 month): 97.9 ± 0.3
- Purity ([3]; 24 month, listed as C-1-1): 99.7 ± 0.4
- Purity ([3]; Day 0, listed as C-1-1): 99.8 ± 0.1

Molecule: CC(C)Cc1ccc([C@@H](C)C(=O)OC[C@@H]2CCCN2)cc1.Cl [C-7, 2-pyrrolidinemethyl (R,S)-2-(p-isobutylphenyl)propionate•HCl salt]
- Purity(%) from day 0-28 [2, 4]: 66.8 ± 0.3%
- Purity(%) from day 0-28 [2, 5]: 86.0 ± 0.4%
- Purity(%) from day 0-28 [2, 6]: 86.0 ± 0.3%
- Purity(%) from day 0-28 [2, 7]: 94.3 ± 0.3%
- Purity(%) from day 0-28 ([2]; day 28, pH 4.0, 7% in 25% ethanol): 95.8 ± 0.3%
- Purity(%) from day 0-28 ([2]; day 28, pH 4.3, 7% in 25% ethanol): 96.5 ± 0.4%
- Purity(%) from day 0-28 [2, 8]: 96.2 ± 0.3%
- Purity(%) from day 0-28 [2, 9]: 89.3 ± 0.2%
- Purity(%) from day 0-28 [2, 10]: 86.2 ± 0.3%
- Purity(%) from day 0-28 [2, 11]: 48.0 ± 0.3%
- Purity(%) from day 0-28 [2, 12]: 34.3 ± 0.4%
- Purity ([3]; 9 month): 98.1 ± 0.1
- Purity ([3]; 18 month): 98.0 ± 0.3
- Purity ([3]; 24 month): 97.9 ± 0.1

Molecule: H-Tyr-Gly-Gly-Phe-Met-OCH(CH3)2.HCl [U-2]
- pH at which the solution is stable [2]: 3-6
- Time the solution can be stored at room temperature [2]: about 1 year
- Purity ([3]; 3 month): 98.9 ± 0.3
- Purity ([3]; 6 month): 98.6 ± 0.2
- Purity ([3]; 9 month): 98.6 ± 0.3
- Purity ([3]; 12 month): 98.5 ± 0.2
- Purity ([3]; 18 month): 98.5 ± 0.2
- Purity ([3]; 24 month): 98.4 ± 0.2
- Purity ([3]; Day 0): 98.9 ± 0.1
- Stability of the pure powder [3]: very stable

Molecule: H-Val-Pro-Asp[OCH(CH3)2]-Pro-Arg(NO2)—OCH(CH3)2•HCl [T-3]
- Purity (%) at day 30 (60° C.) [1, 13]: 33.2 ± 0.3%
- Purity (%) at day 90 (60° C.) [1, 13]: 0%
- Purity (%) at day 180 (60° C.) [1, 13]: 0%
- Purity (%) at day 360 (60° C.) [1, 13]: 0%
- Purity(%) at day 0 [1, 13]: 99.1 ± 0.1%
- Purity(%) at day 30 (5° C.) [1, 13]: 98.9 ± 0.2%
- Purity(%) at day 30 (25° C.) [1, 13]: 97.9 ± 0.3%
- Purity(%) at day 30 (40° C.) [1, 13]: 71.9 ± 0.2%
- Purity(%) at day 90 (5° C.) [1, 13]: 98.6 ± 0.3%
- Purity(%) at day 90 (25° C.) [1, 13]: 97.2 ± 0.3%
- Purity(%) at day 90 (40° C.) [1, 13]: 34.2 ± 0.3%
- Purity(%) at day 180 (5° C.) [1, 13]: 97.9 ± 0.2%
- Purity(%) at day 180 (25° C.) [1, 13]: 95.2 ± 0.3%
- Purity(%) at day 180 (40° C.) [1, 13]: 13.5 ± 0.3%
- Purity(%) at day 360 (5° C.) [1, 13]: 97.4 ± 0.3%
- Purity(%) at day 360 (25° C.) [1, 13]: 92.5 ± 0.4%
- Purity(%) at day 360 (40° C.) [1, 13]: 0%
- pH at which the solution is stable [2]: 3-6
- Time the solution can be stored at room temperature [2]: about 1 year
- Purity at 3 month ([3]; pure HPD at 25° C./RH 60%): 99.0 ± 0.2
- Purity at 6 month ([3]; pure HPD at 25° C./RH 60%): 99.0 ± 0.2
- Purity at 9 month ([3]; pure HPD at 25° C./RH 60%): 98.8 ± 0.2
- Purity at 12 month ([3]; pure HPD at 25° C./RH 60%): 98.7 ± 0.0
- Purity at 18 month ([3]; pure HPD at 25° C./RH 60%): 98.6 ± 0.0
- Purity at 24 month ([3]; pure HPD at 25° C./RH 60%): 98.5 ± 0.2
- Purity at Day 0 ([3]; pure HPD at 25° C./RH 60%): 99.1 ± 0.2
- Stability of the pure powder [3]: very stable
